Data set [1] relates to DMBA-induced rat mammary tumor. The experiment in a line: DMBA-induced rat mammary tumor model, retinoid-containing diets. The format is in vivo. On the procedure: Preliminary evaluation of the mammary tumor chemotherapeutic activity of 4-HBRCG (7) was conducted, and its toxicity profile was also assessed. As previously described,^7, 12 tumor-bearing female rats (treated ca. 50 days earlier with 7,12-dimethylbenz(a)anthracene [DMBA]) were fed the control or retinoid-containing diets (RA (2), 4-HPR (3) or 4-HBRCG (7)) at 2 mmole/kg diet for 22 days.
(§1) Animal Studies: Mammary tumors were induced by intragastric intubation of 50-day old female Sprague-Dawley rats (Harlan Industries, Indianapolis, Ind.) with a single dose of 15 mg DMBA in 1.0 ml of sesame oil per rat. The rats were then maintained on a powdered Teklad 22/5 rodent chow diet (W) 8640 (Harlan Industries, Indianapolis, Ind.), and allowed food and water ad libitum. Four months later, rats which had developed palpable tumors were randomly assigned to the experimental groups (4 rats/group). The retinoid-treated groups were fed diets supplemented with 2 mmol/kg diet of atRA, 4-HPR, or 4-HBRCG, respectively. The retinoids were added to the diet in a vehicle consisting of 25 ml of ethanol: tricaprylin (1:4 v/v) plus 2% (w/v) of α-tocopherol as previously described.^9 This vehicle was also added to the control diet. The additives were blended into the chow diets using a Hobart food mixer. The diets were fed in stainless steel feeders designed with food hoppers. The food was replaced weekly with freshly prepared diets. Food consumption was determined once weekly, and from that the average daily consumption/rat was estimated. These diets were continuously fed for 22 days. Animals were also weighted weekly and monitored for general health status and signs of possible toxicity due to treatment.
(§2) Baseline measurement of initial tumor sizes, numbers and rat body weights were determined immediately before commencement of treatments, and final measurements were recorded just prior to sacrifice of the animals. Animals were palpated for tumors twice weekly and tumor diameters were measured weekly by a micrometer caliper. Tumor volumes were calculated using the formula [V= 4/3 πr^3] where r is one-half the mean of the sum of the largest diameter and the axis at right angle to it. All tumors as well as lungs, liver, kidney and femur were excised at the end of the experiment for chemical and histopathological evaluation. Blood samples were also taken from each animal for determination of plasma retinol and triglyceride levels.

Data set [2] can be described thus: Body weight change during retinoid feeding. The format is in vivo, rat. The following applies: 2 mmol/kg diet. On the procedure:
as §1, §2

The nature of data set [3]: Terminal plasma drug levels (plasma retinoid assay, HPLC). Conditions: female, Sprague-Dawley, rat, plasma, oral; day 22 of treatment; 2 mmol/kg diet; ± SEM; read-out: Plasma retinoid concentration (terminal plasma drug level). The format is in vivo, rat. As to the method: Plasma Retinoid Assay. To 500 μL of plasma was added 150 μL of ethanol containing 0.75 μg of internal standard (N-(4-chlorophenyl) retinamide). After mixing 30 sec., 500 μL of ethyl acetate was added followed by 1 min. of mixing and centrifugation for 5 minutes at 1000 rpm in an IEC CL centrifuge. The ethyl acetate layer was removed and syringe filtered through a 0.45 um filter. The ethyl acetate extraction was repeated two more times. The combined extracts were evaporated and the residue reconstituted in 100 μL of methanol. The methanol extract (20 μL) was analyzed by HPLC on a Beckman Instruments model 127 instrument equipped with a model 166 UV detector. Chromatography was done on a precolumn equipped 250×4.6 mm Bechman Ultrasphere ODS column with an 85% methanol/water mobile phase (both containing 10 mM ammonium acetate) flowing at 1 mL/min. Analysis for both internal standard and retinol was conducted at 350 nm and internal standard recoveries and retinol levels were determined by comparison with standard curves, with adjustment of the retinol level based on recovery. Recoveries of internal standard averaged ca. 78%. […] In the 4-HPR treated group, plasma levels of this retinoid were evaluated simultaneously in the same samples as above. In order to avoid interfering substances, plasma treatment retinoid levels for RA and 4-HBRCG were measured using the above system and a step gradient of 75% methanol for 15 min. followed by 85% methanol for 40 minutes.

The nature of data set [4]: Plasma triglyceride measurement. The following applies: 2 mmol/kg diet, 22 days; FIG. 2A. The format is in vivo, rat. As to the method: Plasma Triglyceride Measurement. Bloods were drawn from anesthetized animals in the presence of EDTA as an anticoagulant, and the resulting plasma was used for the measurement of plasma “true” triglyceride levels using a kit from Sigma-Aldrich (Saint Louis, Mo.). Briefly, the total plasma triglyceride and glycerol concentrations were determined, and the glycerol component was subtracted from the total plasma triglyceride measurement to obtain the “true” serum triglyceride concentration.

The nature of data set [5]: Femur bone mineral content. The format is in vivo, rat. The following applies: end of feeding study; FIG. 2B. The text has this:
Bone Mineral Content. The femur was disarticulated from the leg, and the adhering soft tissue was removed by dissection. Femurs were scanned using the Lunar PIXImus 2 system (Model X2608, General Electric using the LUNAR software version 1.45), and control measurements were made using the small animal quality control phantom. Femurs were scanned 5 times each with re-positioning at each measure. The average value of the bone mineral content (BMC) in grams for each animal is reported as one independent measure.

The subject of another data set is CYP26A1 mRNA. Briefly: Induction of CYP26A1 mRNA in liver (Q-PCR). The format is in vivo, rat. Conditions: at sacrifice, retinoid-fed rats, 2 mmol/kg diet; FIG. 4.
The next data set deals with CYP26B1 mRNA. Briefly: Induction of CYP26B1 mRNA in lung (Q-PCR). The format is in vivo, rat. The following applies: at sacrifice, retinoid-fed rats, 2 mmol/kg diet; data not shown.
Data set [6] relates to nuclear retinoic acid receptors (RAR). The following applies: cited from earlier work.
[7] abbreviates: number of individual tumors, 2 mmol/kg diet, 22 days.

Marks after values point to notes of the source that are not given here.

Turning to `CC1=C(/C=C/C(C)=C/C=C/C(C)=C/C(=O)O)C(C)(C)CCC1` [Retinoic acid (2), all-trans retinoic acid], the “% Change in tumor volume from baseline” value in data set [1] (2 mmol/kg diet for 22 days) is listed as −38 ^d %. Also, the Final tumor volume in data set [1] (2 mmol/kg diet for 22 days, mean ± SEM) is 0.05 ± 0.02 cm^3. In data set [1] (baseline before treatment, mean ± SEM), the Initial tumor volumes amounted to 0.08 ± 0.03 cm^3. Further, in data set [1] (setting [7]), the “Complete regression (tumors that totally disappeared)” value is on record as 1, the No effect was 1 and the “Partial regression (tumors with 25-75% decrease in volume)” value amounted to 8. The compound further registered a New tumors in data set [1] (number of tumors, 2 mmol/kg diet, 22 days) of 0. Further, the “Effect on normal body weight gain” value in data set [2] (feeding period) is recorded as “significant reduction in normal body weight gain”. The “% Weight change” value in data set [2] (relative to baseline body weight over 22 days) is on record as “+0.2 ^d %”. The concentration at 22 day in data set [3] is 300 ± 100 ng/mL. The “Effect on serum triglyceride concentration” value in data set [4] was “dramatically increased serum triglyceride concentration”. For the same compound, the “Effect on femur bone mineral content vs control” value in data set [5] is on record as “significant reduction in femur BMC”. Moreover, the “Induction of CYP26A1 mRNA in liver” value with CYP26A1 mRNA was 67 fold above control. Further, the “Induction of CYP26B1 mRNA in lung” value in the data set on CYP26B1 mRNA worked out at 46 fold above control.

With `CC1=C(/C=C/C(C)=C/C=C/C(C)=C/C(=O)Nc2ccc(O[C@@H]3O[C@H](C(=O)O)[C@@H](O)[C@H](O)[C@H]3O)cc2)C(C)(C)CCC1` [compound 5, N-(4-hydroxyphenyl) retinamide-O-glucuronide], the “Affinity for binding to nuclear RAR relative to RA” value in data set [6] was “low affinity relative to RA”.

In the case of `CC1=C(/C=C/C(C)=C/C=C/C(C)=C/C(=O)Nc2ccc(CC3OC(C(=O)O)C(O)C(O)C3O)cc2)C(C)(C)CCC1` (stereo not shown) [compound 6, N-(4-hydroxyphenyl) retinamide-C-glucuronide], the “Affinity for binding to nuclear RAR relative to RA” value in data set [6] is listed as “low affinity relative to RA”.

The values above are taken from patent publication US9359322B2, “C-linked glucuronide of N-(4-hydroxybenzyl) retinone, analogs thereof, and methods of using the same to inhibit neoplastic cell growth” (Wisconsin Alumni Research Foundation, priority 2005, dated 2016).
